How the values were obtained:
[1] = basic moiety of the compound (trialkylhydrazine / O-alkylaminooxy); cited from earlier work
[2] = HPLC kinetics assay: condensation of model amines with benzyloxyacetaldehyde; conditions: 50 μM amine and aldehyde, room temperature, 2 h, above pH 6
Description: Experimental Protocol for HPLC Kinetics Assay: Reaction mixtures contained amine 4, 6, 7, or 8 (50 μM), benzyloxyacetaldehyde (50 μM), bromocresol green (10 μM), and buffer (10 mM) in a 120 μL aqueous solution containing 6.7% MeCN, which was present to solubilize the stock solution (1 mM) of benzyloxyacetaldehyde. After 2 h at room temperature, a 100 μL aliquot was analyzed by HPLC, employing a gradient of 10 to 100% acetonitrile in water over 18 min.
As described above, buffered solutions containing 50 μM amine and aldehyde were incubated at room temperature for 2 h prior to analysis by HPLC.

Compound: CNN(C)Cc1cc2ccccc2n1CCC(=O)O [Compound 4, Piperidinium 3-(2-((1,2-dimethylhydrazinyl)methyl)-1H-indol-1-yl)propanoate]
- pKa [1]: ~6.56
- % conversion to product [2]: higher % conversion to product than the other amine nucleophiles
